Where no end group is shown, it is not given here. The star is where a group is joined. For = O=C*
Tests used:
[1] = system: mast cell degranulation induced by Compound 48/80; assay: Rat skin model: inhibition of Compound 48/80-induced mast cell degranulation (capillary permeability, trypan blue); assay type: in vivo; details: 0.15 μg Compound 48/80
Experimental: The Rat Skin Model for Determination of Inhibition of Mast Cell Degranulation
In this model, the blood plasma of the experimental rat is labeled with the dye trypan blue. This soluble dye is carried in the bloodstream as a passive marker of plasma itself, and is excluded from live cells. Intact blood vessels, including the capillary system, retain this dye under normal circumstances. A compound, which induces degranulation of mast cells (resulting in leukotriene and histamine release), is injected into the skin to simulate allergen-induced degranulation. In these experiments, Compound 48/80 was used for this purpose. In the events following leukotriene and histamine release, capillary permeability is increased, and plasma, dyed blue, leaks from capillaries and dyes the skin surrounding the injection site blue. The area of bluing is a measure of the amount of Compound 48/80 injected.
A compound can be tested for “anti-leukotriene” and/or “anti-histamine” activity by mixing it with Compound 48/80 prior to injection.
The rat skin model was undertaken and validated. Various peptides were tested at a predetermined dose for anti-leukotriene and/or anti-histamine activity. The dose selected allowed a general comparison to f-Met-Leu-Phe, which was standard compound for comparison.
A “dose response” titration was performed for some compounds and compared with the standard compound. Observing serial decreases in the size areas of capillary permeability using serially smaller doses of the putative inhibitory compound validates the inhibition of leukotriene and/or histamine release observed in the initial predetermined dose test.
Reagents were obtained from Sigma or Aldrich, with the exception of ketamine, a veterinary anaesthetic that was obtained from various veterinary suppliers. The rats used were male Sprague-Dawley breed, 220-240 g at time of purchase from B&K International.
For the rat skin reaction, rats were anaesthetized with 0.25 ml 10 mg/ml ketamine. 1.0 ml trypan blue in saline (sterile filtered) was administered in a tail vein, and the back of the rat was shaved. Four intradermal injection sites per rat were used for test and control injections.
Compound 48/80 was prepared as a 1.5 mg/ml stock solution in saline. […] Serial dilutions in saline to working levels were prepared just prior to injection of each rat.
Peptides were prepared as a 23 mM stock solution in DMSO, and stored at −20° C. between experiments. At the time of use, the frozen stock solutions were thawed, and appropriate aliquots added to dilutions of Compound 48/80, along with appropriate amounts of DMSO, to result in the ratio of 5 μl DMSO to 0.1 ml aqueous Compound 48/80.
For injections, 0.1 ml […], +1/− test compounds were injected intradermally into anaesthetized, dyed, and shaved rats. Following a 15 minute incubation, the rats were sacrificed by cervical dislocation and the back skin was evulsed and placed on a light box. An image of the backlit skin was digitized using a CCD video capture camera and compatible hardware/software. The digitized image was analyzed using a scientific graphics analysis software package, and the areas of capillary permeability (bluing) were integrated and digital values were obtained for further analysis.
A dose response curve was generated using Compound 48/80 at various doses from ca. 0.01 μg through ca. 15 μg. […] A dose of 0.15 μg of Compound 48/80 was selected for conducting further tests.
Several f-Met-Leu peptides were tested for inhibition of induced degranulation in the rat skin model using 100 nanomoles of the test peptide and a dose of 0.15 μg Compound 48/80. An intrinsic zero-peptide-dose 48/80 control was included in each rat for each experiment, and the % of inhibition was expressed in relative terms to this control (0% inhibition). The percent mast cell degranulation produced by 48/80 was also determined.

[2] = system: induced type II collagen arthritis; assay: Induced type II collagen arthritis mouse model; assay type: in vivo; details: HK-X TC or footpad, 0.4 or 4 mg/kg for 20 days; method written in present tense
Description: A mouse model is used to evaluate the effect of the compounds of the present invention on the histological, radiographic and clinical appearance of induced type II collagen arthritis. Mice: DBA/1(2) male mice weighing 25 gms (Jackson Laboratories, Bar Harbor, Me. or B&K Universal, Kent Wash.) are used for this work. This strain of mouse is susceptible to CIA by the injection of heterologous type II collagen. Bovine Collagen (BC), Complete Freund's Adjuvant (CFA) and Incomplete Freund's Adjuvant (ICFA) can be obtained from Sigma Chemical. Antigen for immunization is processed in 0.1 M acetic acid and formulated with CFA or ICFA. […] The degree of cellularity and areas of inflammation are quantified by using digitization of histological photomicrographs and applying standard area and point counting techniques as described above. […] The average area of soft tissue (pannus) of the joint is determined by analysis of computer digitized radiographs, along with changes in density of the adjacent hard tissues by comparison with internal standards included with each radiograph. […] The significance of the differences in density and area for control and experimental mice is assessed using paired T-tests at each time point. […] Swelling of hind paws is also quantitated by measuring the thickness of the ankle from the medial to the lateral malledus with a constant tension caliper. […]

Substance: f-Met-Leu-Phe-Phe (For-MLFF) [Example 9]
- inhibition of induced degranulation compared with standard f-Met-Leu-Phe ([1]; dose response): unexpectedly substantially better than that of the standard compound f-Met-Leu-Phe
- dose response, inhibition of degranulation induced by Compound 48/80 ([1]; doses of 0 to about 230 nM peptide, FIG. 2 / FIG. 3): Surprisingly remarkable inhibition of degranulation induced by Compound 48/80 was clearly shown
- % Degranulation ([1]; percent mast cell degranulation produced by 48/80, 100 nanomoles peptide): 1-3%
- degree of arthritis [2]: found to reduce the degree of arthritis
